Columns and labels:
[1] = PDMS sheets cleaned by Soxhlet with ethyl acetate; batch shaking method with a mixture of all chemicals at several PDMS-mass to water-volume ratios and spiked levels; vials shaken on an orbital shaker at room temperature in the dark, sampled at two equilibration times; PDMS extracts and water quantified by LC-HRMS (Orbitrap); D from the slope of C_PDMS on C_w or their ratio; value is the mean over that pH's experiments (individual experiments in the SI's concentrations table), sd is the table's stdev; details: PDMS (polydimethylsiloxane silicone sheet), phosphate buffer at three target pH values (the paper's methods)
[2] = monoprotic acid or base: log K of the neutral species extrapolated from the linear regression of D on the neutral fraction (from pKa and pH; the paper's eq. for monoprotic IOCs), the slope giving K of the neutral species; replicates column holds the table's 95% confidence limits. PDMS sheets cleaned by Soxhlet with ethyl acetate; batch shaking method with a mixture of all chemicals at several PDMS-mass to water-volume ratios and spiked levels; vials shaken on an orbital shaker at room temperature in the dark, sampled at two equilibration times; PDMS extracts and water quantified by LC-HRMS (Orbitrap); D from the slope of C_PDMS on C_w or their ratio; details: PDMS (polydimethylsiloxane silicone sheet); phosphate buffer at three target pH values (the paper's methods)

Row | SMILES | log D PDMS/w (apparent distribution ratio at the stated pH) ([1]; pH 3) | log D PDMS/w (apparent distribution ratio at the stated pH) ([1]; pH 7.4) | log D PDMS/w (apparent distribution ratio at the stated pH) ([1]; pH 11.5) | log K PDMS/w (neutral species) [2]
1 | c1ccc2c(c1)[nH]c1ccncc12 | -0.445 log units; D and K as the pape | 2.315 log units; D and K as the pape | 2.443 log units; D and K as the pape | 2.458 log units; D and K as the pape
2 | c1ccc2sc(N3CCOCC3)nc2c1 | 1.704 log units; D and K as the pape | 1.897 log units; D and K as the pape | 1.881 log units; D and K as the pape | 2.029 log units; D and K as the pape
3 | CCOC(=O)c1ccc(N)cc1 | 0.4988 log units; D and K as the pape | 0.4322 log units; D and K as the pape | 0.4489 log units; D and K as the pape | 0.5546 log units; D and K as the pape
4 | c1ccc2c(c1)[nH]c1cnccc12 | 1.471 log units; D and K as the pape | 2.208 log units; D and K as the pape | 2.227 log units; D and K as the pape | 2.353 log units; D and K as the pape
5 | Cc1nccn1CC1CCc2c(c3ccccc3n2C)C1=O (stereo not shown) | -0.92 log units; D and K as the pape | 1.409 log units; D and K as the pape | 2.124 log units; D and K as the pape | 2.203 log units; D and K as the pape
6 | CSc1nc(NC2CC2)nc(NC(C)(C)C)n1 | 2.006 log units; D and K as the pape | 2.689 log units; D and K as the pape | 2.624 log units; D and K as the pape | 2.78 log units; D and K as the pape
7 | O=C1Nc2ccc(Cl)cc2C(C#CC2CC2)(C(F)(F)F)O1 (stereo not shown) | 2.835 log units; D and K as the pape | 2.884 log units; D and K as the pape |  | 2.899 log units; D and K as the pape
8 | Cc1cc(=O)oc2cc(N)ccc12 | 0.7917 log units; D and K as the pape | 0.8008 log units; D and K as the pape | 0.8475 log units; D and K as the pape | 0.9136 log units; D and K as the pape
9 | O=C(O)CCC(=O)c1ccc(F)cc1 | -0.02167 log units; D and K as the pape |  |  | 0.05461 log units; D and K as the pape
10 | Clc1ccc2n[nH]nc2c1 | 0.7386 log units; D and K as the pape | 0.79 log units; D and K as the pape | 0.065 log units; D and K as the pape | 1.144 log units; D and K as the pape
11 | Clc1cccc(Cl)c1NC1=NCCN1 | 0.07 log units; D and K as the pape | 1.56 log units; D and K as the pape |  | 2.618 log units; D and K as the pape
12 | CCNc1ccc2c(C)cc(=O)oc2c1 | 1.914 log units; D and K as the pape | 1.863 log units; D and K as the pape | 1.825 log units; D and K as the pape | 2.015 log units; D and K as the pape
13 | CCNC(=O)[C@@H](C)OC(=O)Nc1ccccc1 | 0.635 log units; D and K as the pape | 0.5527 log units; D and K as the pape | 0.7717 log units; D and K as the pape | -0.07551 log units; D and K as the pape
14 | c1ccc2nc3ccccc3cc2c1 | 0.945 log units; D and K as the pape | 2.315 log units; D and K as the pape | 2.167 log units; D and K as the pape | 2.366 log units; D and K as the pape
